# According to ChEMBL document CHEMBL3046407, “Toxicity of monoterpenes against larvae and adults of Colorado potato beetle, Leptinotarsa decemlineata Say (Coleoptera: Chrysomelidae)” (2007):
# Key:
# Format in all cases: functional
# [1] = tested on: Leptinotarsa decemlineata; assay: Insecticidal activity against third-instar larval stage of Leptinotarsa decemlineata infested potato leaves assessed as mortality at 10 ul after 12 hr relative to control
# [2] = tested on: Leptinotarsa decemlineata; assay: Insecticidal activity against adult Leptinotarsa decemlineata infested potato leaves assessed as mortality at 20 ul after 12 hr relative to control
# [3] = tested on: Leptinotarsa decemlineata; assay: Insecticidal activity against adult Leptinotarsa decemlineata infested potato leaves assessed as mortality at 20 ul after 48 hr relative to control
# [4] = tested on: Leptinotarsa decemlineata; assay: Insecticidal activity against first-instar larval stage of Leptinotarsa decemlineata infested potato leaves assessed as mortality at 10 ul after 24 hr relative to control
# [5] = tested on: Leptinotarsa decemlineata; assay: Insecticidal activity against third-instar larval stage of Leptinotarsa decemlineata infested potato leaves assessed as mortality at 20 ul after 24 hr relative to control
# [6] = tested on: Leptinotarsa decemlineata; assay: Insecticidal activity against third-instar larval stage of Leptinotarsa decemlineata infested potato leaves assessed as mortality at 10 ul after 96 hr (reference value: 3.3 +/- 3.3%)
# [7] = tested on: Leptinotarsa decemlineata; assay: Insecticidal activity against adult Leptinotarsa decemlineata infested potato leaves assessed as mortality at 10 ul after 96 hr relative to control
# [8] = tested on: Leptinotarsa decemlineata; assay: Insecticidal activity against first-instar larval stage of Leptinotarsa decemlineata infested potato leaves assessed as mortality at 20 ul after 96 hr relative to control
# [9] = tested on: Leptinotarsa decemlineata; assay: Insecticidal activity against first-instar larval stage of Leptinotarsa decemlineata infested potato leaves assessed as mortality at 20 ul after 12 hr relative to control
# [10] = tested on: Leptinotarsa decemlineata; assay: Insecticidal activity against first-instar larval stage of Leptinotarsa decemlineata infested potato leaves assessed as mortality at 10 ul after 12 hr relative to control
# [11] = tested on: Leptinotarsa decemlineata; assay: Insecticidal activity against third-instar larval stage of Leptinotarsa decemlineata infested potato leaves assessed as mortality at 20 ul after 12 hr relative to control
# [12] = tested on: Leptinotarsa decemlineata; assay: Insecticidal activity against second-instar larval stage of Leptinotarsa decemlineata infested potato leaves assessed as mortality at 20 ul after 48 hr (reference value: 3.3 +/- 3.3%)
# [13] = tested on: Leptinotarsa decemlineata; assay: Insecticidal activity against third-instar larval stage of Leptinotarsa decemlineata infested potato leaves assessed as mortality at 10 ul after 48 hr (reference value: 3.3 +/- 3.3%)
# [14] = tested on: Leptinotarsa decemlineata; assay: Insecticidal activity against adult Leptinotarsa decemlineata infested potato leaves assessed as mortality at 10 ul after 12 hr relative to control
# [15] = tested on: Leptinotarsa decemlineata; assay: Insecticidal activity against third-instar larval stage of Leptinotarsa decemlineata infested potato leaves assessed as mortality at 10 ul after 24 hr relative to control
# [16] = tested on: Leptinotarsa decemlineata; assay: Insecticidal activity against second-instar larval stage of Leptinotarsa decemlineata infested potato leaves assessed as mortality at 10 ul after 12 hr relative to control
# [17] = tested on: Leptinotarsa decemlineata; assay: Insecticidal activity against second-instar larval stage of Leptinotarsa decemlineata infested potato leaves assessed as mortality at 10 ul after 24 hr (reference value: 3.3 +/- 3.3%)
# [18] = tested on: Leptinotarsa decemlineata; assay: Insecticidal activity against adult Leptinotarsa decemlineata infested potato leaves assessed as mortality at 20 ul after 96 hr relative to control
# [19] = tested on: Leptinotarsa decemlineata; assay: Insecticidal activity against second-instar larval stage of Leptinotarsa decemlineata infested potato leaves assessed as mortality at 10 ul after 48 hr (reference value: 3.3 +/- 3.3%)
# [20] = tested on: Leptinotarsa decemlineata; assay: Insecticidal activity against adult Leptinotarsa decemlineata infested potato leaves assessed as mortality at 10 ul after 24 hr relative to control
# [21] = tested on: Leptinotarsa decemlineata; assay: Insecticidal activity against first-instar larval stage of Leptinotarsa decemlineata infested potato leaves assessed as mortality at 10 ul after 96 hr relative to control
# [22] = tested on: Leptinotarsa decemlineata; assay: Insecticidal activity against second-instar larval stage of Leptinotarsa decemlineata infested potato leaves assessed as mortality at 20 ul after 96 hr (reference value: 3.3 +/- 3.3%)
# [23] = tested on: Leptinotarsa decemlineata; assay: Insecticidal activity against adult Leptinotarsa decemlineata infested potato leaves assessed as mortality at 20 ul after 24 hr relative to control
# [24] = tested on: Leptinotarsa decemlineata; assay: Insecticidal activity against second-instar larval stage of Leptinotarsa decemlineata infested potato leaves assessed as mortality at 20 ul after 12 hr relative to control
# [25] = tested on: Leptinotarsa decemlineata; assay: Insecticidal activity against second-instar larval stage of Leptinotarsa decemlineata infested potato leaves assessed as mortality at 10 ul after 96 hr (reference value: 3.3 +/- 3.3%)
# [26] = tested on: Leptinotarsa decemlineata; assay: Insecticidal activity against adult Leptinotarsa decemlineata infested potato leaves assessed as mortality at 10 ul after 48 hr relative to control
# [27] = tested on: Leptinotarsa decemlineata; assay: Insecticidal activity against first-instar larval stage of Leptinotarsa decemlineata infested potato leaves assessed as mortality at 20 ul after 48 hr relative to control
# Sitophilus granarius = assay: Insecticidal activity against Sitophilus granarius (granary weevil) assessed as mortality
# [28] = tested on: Leptinotarsa decemlineata; assay: Insecticidal activity against third-instar larval stage of Leptinotarsa decemlineata infested potato leaves assessed as mortality at 20 ul after 96 hr (reference value: 3.3 +/- 3.3%)
# [29] = tested on: Leptinotarsa decemlineata; assay: Insecticidal activity against first-instar larval stage of Leptinotarsa decemlineata infested potato leaves assessed as mortality at 10 ul after 48 hr relative to control
# [30] = tested on: Leptinotarsa decemlineata; assay: Insecticidal activity against second-instar larval stage of Leptinotarsa decemlineata infested potato leaves assessed as mortality at 20 ul after 24 hr (reference value: 3.3 +/- 3.3%)
# [31] = tested on: Leptinotarsa decemlineata; assay: Insecticidal activity against third-instar larval stage of Leptinotarsa decemlineata infested potato leaves assessed as mortality at 20 ul after 48 hr (reference value: 3.3 +/- 3.3%)
# [32] = tested on: Leptinotarsa decemlineata; assay: Insecticidal activity against first-instar larval stage of Leptinotarsa decemlineata infested potato leaves assessed as mortality at 20 ul after 24 hr relative to control
SMILES,mortality [1],mortality [2],mortality [3],mortality [4],mortality [5],mortality [6],mortality [7],mortality [8],mortality [9],mortality [10],mortality [11],mortality [12],mortality [13],mortality [14],mortality [15],mortality [16],mortality [17],mortality [18],mortality [19],mortality [20],further results
C=C(C)[C@H]1CC=C(C)CC1 [D-LIMONENE],0%,90%,100%,50%,60%,53.3%,100%,90%,43.3%,23.3%,33.3%,80%,50%,83.3%,46.7%,53.3%,86.7%,100%,90%,100%,mortality [21]: 90%; mortality [22]: 90%; mortality [23]: 100%; mortality [24]: 76.7%; mortality [25]: 93.3%; mortality [26]: 100%; mortality [27]: 80%; mortality (Sitophilus granarius): 90%; mortality [28]: 70%; mortality [29]: 83.3%; mortality [30]: 80%; mortality [31]: 63.3%; mortality [32]: 76.7%
CC(C)[C@H]1CC[C@H](C)CC1=O (relative stereo) [REL-MENTHONE],30%,83.3%,100%,23.3%,30%,56.7%,100%,66.7%,26.7%,6.7%,23.3%,56.7%,53.3%,70%,50%,13.3%,33.3%,100%,33.3%,93.3%,mortality [21]: 50%; mortality [22]: 56.7%; mortality [23]: 100%; mortality [24]: 26.7%; mortality [25]: 36.7%; mortality [26]: 100%; mortality [27]: 56.7%; mortality (Sitophilus granarius): 90%; mortality [28]: 50%; mortality [29]: 40%; mortality [30]: 53.3%; mortality [31]: 43.3%; mortality [32]: 53.3%
